Counter-ions that a name gives are not always drawn. Calls of active or inactive are those of the source.
Columns and labels:
[1] = biological target: T1, Aminopeptidase N (Plasmodium falciparum FcB1/Columbia, UniProt O96935); experiment: P. falciparum M1AAP inhibitors, biochemical, fluorogenic H-Leu-NHMec substrate, 1536-well (AID 1445); set-up: species or system Plasmodium falciparum 3D7, 3D7
T1 sequence (O96935 whole entry): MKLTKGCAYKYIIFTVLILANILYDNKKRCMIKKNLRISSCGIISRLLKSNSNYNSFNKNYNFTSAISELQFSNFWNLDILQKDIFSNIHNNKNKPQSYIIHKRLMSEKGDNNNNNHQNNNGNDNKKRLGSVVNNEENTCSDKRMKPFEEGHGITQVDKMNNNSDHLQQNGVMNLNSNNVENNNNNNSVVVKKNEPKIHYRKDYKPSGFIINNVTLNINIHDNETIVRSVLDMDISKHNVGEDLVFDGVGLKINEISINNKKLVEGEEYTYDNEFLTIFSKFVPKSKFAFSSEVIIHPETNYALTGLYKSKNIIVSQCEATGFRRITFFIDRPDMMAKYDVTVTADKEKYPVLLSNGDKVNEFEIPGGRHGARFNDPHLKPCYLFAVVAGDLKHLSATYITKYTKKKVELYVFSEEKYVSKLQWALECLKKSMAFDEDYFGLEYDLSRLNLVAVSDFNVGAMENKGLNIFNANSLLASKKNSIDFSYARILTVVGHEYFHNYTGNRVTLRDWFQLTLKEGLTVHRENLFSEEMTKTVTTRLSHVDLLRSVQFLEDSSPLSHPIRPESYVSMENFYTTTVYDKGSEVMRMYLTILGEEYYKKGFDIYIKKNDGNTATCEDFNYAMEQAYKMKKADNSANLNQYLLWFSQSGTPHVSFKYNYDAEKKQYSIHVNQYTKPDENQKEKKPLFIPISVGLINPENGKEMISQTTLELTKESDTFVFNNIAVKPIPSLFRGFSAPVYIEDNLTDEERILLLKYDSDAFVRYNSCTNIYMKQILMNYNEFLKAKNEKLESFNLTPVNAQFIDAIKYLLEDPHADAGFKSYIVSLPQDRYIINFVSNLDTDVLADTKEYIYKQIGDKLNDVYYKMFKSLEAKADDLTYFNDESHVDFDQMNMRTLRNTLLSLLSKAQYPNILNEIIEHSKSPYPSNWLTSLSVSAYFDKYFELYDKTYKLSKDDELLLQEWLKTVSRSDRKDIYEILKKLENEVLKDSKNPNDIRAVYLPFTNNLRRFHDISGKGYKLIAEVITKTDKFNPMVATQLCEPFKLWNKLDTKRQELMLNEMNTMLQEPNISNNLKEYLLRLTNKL

[2] = cells; format: functional
[3] = biological target: T2, Corticotropin-releasing factor receptor 2/Corticotropin-releasing factor-binding protein (Homo sapiens, UniProt P24387+Q13324); experiment: activators of CRF receptor 2 with binding protein – uHTS hits, confirmation (AID 602473); format: functional; settings: read-out: EC50_Mean
T2 sequence (Q13324 whole entry): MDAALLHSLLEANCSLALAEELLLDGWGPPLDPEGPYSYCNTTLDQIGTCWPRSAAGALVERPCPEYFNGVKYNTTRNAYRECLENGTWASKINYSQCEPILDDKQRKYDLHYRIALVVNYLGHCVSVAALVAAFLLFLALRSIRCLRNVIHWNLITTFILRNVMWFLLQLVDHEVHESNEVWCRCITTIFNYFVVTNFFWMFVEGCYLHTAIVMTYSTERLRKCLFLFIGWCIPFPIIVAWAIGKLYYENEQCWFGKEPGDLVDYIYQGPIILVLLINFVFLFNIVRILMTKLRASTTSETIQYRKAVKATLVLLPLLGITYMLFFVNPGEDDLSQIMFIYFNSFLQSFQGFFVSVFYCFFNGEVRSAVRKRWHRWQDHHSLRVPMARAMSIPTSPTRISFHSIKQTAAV
T2 sequence (P24387 whole entry): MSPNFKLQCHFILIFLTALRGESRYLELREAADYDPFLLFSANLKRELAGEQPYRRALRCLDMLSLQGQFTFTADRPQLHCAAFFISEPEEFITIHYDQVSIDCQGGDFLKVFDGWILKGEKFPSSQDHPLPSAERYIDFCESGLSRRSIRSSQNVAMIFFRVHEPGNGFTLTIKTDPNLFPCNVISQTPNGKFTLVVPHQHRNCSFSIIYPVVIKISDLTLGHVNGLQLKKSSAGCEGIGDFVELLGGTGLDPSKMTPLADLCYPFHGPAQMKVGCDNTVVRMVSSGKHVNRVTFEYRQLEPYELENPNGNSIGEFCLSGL

[4] = biological target: T3, Fatty acid synthase (Homo sapiens, UniProt P49327); experiment: FAS thioesterase domain inhibitors, dose response, biochemical, endpoint fluorescence intensity, uHTS hits (AID 624327); format: functional;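 also: fluorescence from hydrolysis of an O-methyl fluorescein acyl ester substrate by the enzyme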
T3 sequence (P49327 whole entry, the tested form may be a part): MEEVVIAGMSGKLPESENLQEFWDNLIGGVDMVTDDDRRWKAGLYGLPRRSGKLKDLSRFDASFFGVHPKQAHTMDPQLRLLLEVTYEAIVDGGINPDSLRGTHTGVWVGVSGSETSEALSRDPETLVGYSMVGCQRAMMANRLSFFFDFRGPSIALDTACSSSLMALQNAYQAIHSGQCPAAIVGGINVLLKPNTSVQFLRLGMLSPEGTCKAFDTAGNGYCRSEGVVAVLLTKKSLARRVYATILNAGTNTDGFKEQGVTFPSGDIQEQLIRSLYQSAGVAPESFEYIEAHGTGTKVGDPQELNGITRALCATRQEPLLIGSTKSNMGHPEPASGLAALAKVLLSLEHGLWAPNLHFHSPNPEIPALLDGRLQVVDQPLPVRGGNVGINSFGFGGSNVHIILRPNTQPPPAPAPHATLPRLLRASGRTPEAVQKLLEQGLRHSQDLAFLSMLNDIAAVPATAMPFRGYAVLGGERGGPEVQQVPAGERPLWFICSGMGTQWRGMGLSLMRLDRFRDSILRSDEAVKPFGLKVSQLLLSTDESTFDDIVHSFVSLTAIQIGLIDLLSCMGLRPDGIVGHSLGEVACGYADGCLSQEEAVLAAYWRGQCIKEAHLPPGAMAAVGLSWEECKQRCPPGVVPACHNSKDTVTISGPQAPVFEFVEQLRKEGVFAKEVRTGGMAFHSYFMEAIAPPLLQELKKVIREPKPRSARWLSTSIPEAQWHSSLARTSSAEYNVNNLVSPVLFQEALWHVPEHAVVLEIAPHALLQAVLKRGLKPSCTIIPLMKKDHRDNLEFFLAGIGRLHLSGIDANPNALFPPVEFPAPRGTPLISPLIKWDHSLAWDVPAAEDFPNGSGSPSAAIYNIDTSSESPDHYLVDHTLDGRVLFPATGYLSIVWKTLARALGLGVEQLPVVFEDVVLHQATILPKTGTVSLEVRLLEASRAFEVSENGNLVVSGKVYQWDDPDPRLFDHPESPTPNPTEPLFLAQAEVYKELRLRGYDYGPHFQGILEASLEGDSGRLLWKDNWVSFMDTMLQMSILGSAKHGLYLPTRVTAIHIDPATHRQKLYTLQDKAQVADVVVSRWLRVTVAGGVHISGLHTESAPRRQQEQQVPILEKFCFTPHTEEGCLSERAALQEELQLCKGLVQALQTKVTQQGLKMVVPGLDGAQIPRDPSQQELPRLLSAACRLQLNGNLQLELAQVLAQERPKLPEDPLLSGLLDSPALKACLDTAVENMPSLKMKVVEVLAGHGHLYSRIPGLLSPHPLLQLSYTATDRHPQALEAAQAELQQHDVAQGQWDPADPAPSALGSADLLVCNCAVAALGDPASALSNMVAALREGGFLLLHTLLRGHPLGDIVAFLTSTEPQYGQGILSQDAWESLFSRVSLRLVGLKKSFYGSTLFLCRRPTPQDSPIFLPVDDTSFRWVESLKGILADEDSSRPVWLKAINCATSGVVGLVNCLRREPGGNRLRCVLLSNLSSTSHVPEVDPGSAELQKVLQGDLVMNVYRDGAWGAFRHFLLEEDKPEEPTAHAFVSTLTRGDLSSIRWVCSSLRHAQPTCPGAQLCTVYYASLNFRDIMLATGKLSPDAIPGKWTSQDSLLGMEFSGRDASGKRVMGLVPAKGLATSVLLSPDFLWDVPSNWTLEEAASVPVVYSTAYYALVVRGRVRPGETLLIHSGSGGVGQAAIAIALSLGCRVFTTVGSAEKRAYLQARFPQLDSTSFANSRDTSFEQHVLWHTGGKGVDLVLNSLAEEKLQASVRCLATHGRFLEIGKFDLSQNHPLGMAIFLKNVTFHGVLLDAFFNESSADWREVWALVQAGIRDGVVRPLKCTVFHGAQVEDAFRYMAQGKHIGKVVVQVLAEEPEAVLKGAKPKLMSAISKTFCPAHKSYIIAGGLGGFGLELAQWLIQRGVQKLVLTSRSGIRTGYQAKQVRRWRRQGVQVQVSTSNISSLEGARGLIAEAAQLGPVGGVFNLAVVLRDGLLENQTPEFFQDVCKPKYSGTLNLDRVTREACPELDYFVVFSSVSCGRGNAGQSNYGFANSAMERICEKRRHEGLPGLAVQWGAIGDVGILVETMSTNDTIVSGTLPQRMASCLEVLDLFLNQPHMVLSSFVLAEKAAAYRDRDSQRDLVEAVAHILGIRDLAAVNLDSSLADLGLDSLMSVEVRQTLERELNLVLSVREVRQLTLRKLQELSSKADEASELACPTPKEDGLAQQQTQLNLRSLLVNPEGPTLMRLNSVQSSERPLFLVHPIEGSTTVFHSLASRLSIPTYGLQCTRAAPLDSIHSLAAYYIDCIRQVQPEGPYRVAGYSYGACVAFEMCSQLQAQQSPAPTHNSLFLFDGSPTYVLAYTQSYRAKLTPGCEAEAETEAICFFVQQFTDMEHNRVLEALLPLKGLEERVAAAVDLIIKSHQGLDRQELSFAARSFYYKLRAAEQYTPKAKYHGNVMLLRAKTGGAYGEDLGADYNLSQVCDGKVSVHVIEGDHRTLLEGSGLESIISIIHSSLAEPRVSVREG

[5] = biological target: T3, Fatty acid synthase; experiment: FAS thioesterase domain inhibitors, dose response, biochemical, kinetic fluorescence intensity (AID 624326); format: functional;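 also: rate of fluorescence rise from hydrolysis of a fluorogenic O-methyl fluorescein ester substrate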
[6] = biological target: T4, Microphthalmia-associated transcription factor (Homo sapiens, UniProt O75030); experiment: TRPM1 promoter luciferase signal decrease, dose response, MITF inhibitor project, cell-based, SK-MEL-5, cherry-picked, set 3 (AID 493073); format: functional
T4 sequence (O75030 whole entry): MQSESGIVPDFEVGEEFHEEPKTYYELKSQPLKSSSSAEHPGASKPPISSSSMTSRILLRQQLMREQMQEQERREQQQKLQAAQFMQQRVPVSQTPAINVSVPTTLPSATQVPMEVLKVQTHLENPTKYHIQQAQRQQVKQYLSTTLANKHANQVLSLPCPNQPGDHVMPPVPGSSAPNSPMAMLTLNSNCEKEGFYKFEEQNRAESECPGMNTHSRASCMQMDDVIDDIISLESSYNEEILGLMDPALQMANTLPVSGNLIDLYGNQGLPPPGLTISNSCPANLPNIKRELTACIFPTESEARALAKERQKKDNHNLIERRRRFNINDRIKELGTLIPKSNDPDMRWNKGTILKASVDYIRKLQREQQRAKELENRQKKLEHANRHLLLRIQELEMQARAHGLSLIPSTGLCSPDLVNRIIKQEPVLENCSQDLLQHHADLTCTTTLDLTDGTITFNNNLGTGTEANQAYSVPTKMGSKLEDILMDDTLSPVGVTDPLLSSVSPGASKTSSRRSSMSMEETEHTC

[7] = biological target: Large T antigen (Simian virus 40, UniProt P03070); format: functional, Betapolyomavirus macacae;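 also: Confirmatory-stage PubChem screen for compounds that inhibit SV40 T antigen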
Sequence of Large T antigen (P03070 whole entry): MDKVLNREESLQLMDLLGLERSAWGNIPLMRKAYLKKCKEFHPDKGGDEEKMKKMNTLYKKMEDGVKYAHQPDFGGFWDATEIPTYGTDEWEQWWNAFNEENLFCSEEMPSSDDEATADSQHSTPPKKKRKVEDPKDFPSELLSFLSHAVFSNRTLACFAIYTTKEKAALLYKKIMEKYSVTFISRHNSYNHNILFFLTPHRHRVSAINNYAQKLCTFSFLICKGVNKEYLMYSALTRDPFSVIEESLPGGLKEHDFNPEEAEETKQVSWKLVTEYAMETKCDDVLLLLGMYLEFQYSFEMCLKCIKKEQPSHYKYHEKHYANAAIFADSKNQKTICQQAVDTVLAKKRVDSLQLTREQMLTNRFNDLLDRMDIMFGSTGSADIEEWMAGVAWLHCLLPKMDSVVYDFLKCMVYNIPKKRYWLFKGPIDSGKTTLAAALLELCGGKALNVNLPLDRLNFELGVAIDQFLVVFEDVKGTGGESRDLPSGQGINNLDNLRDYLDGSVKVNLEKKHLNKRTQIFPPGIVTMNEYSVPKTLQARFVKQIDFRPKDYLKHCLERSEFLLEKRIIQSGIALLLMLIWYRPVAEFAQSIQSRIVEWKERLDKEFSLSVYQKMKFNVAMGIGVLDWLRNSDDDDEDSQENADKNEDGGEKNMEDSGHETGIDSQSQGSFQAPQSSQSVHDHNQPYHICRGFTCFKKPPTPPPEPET

[8] = biological target: T5, Bcl-2-related protein A1 (Mus musculus, UniProt Q07440); format: functional;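 also: confirmatory dose–response counterscreen on Bfl-1, used to check hits from a UBC13 polyubiquitin inhibitor campaign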
T5 sequence (Q07440 whole entry): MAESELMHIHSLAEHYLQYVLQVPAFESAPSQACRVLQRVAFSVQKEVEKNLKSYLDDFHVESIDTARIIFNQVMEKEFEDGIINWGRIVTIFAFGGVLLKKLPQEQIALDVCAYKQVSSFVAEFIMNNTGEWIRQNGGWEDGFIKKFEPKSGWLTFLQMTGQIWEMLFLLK

[9] = biological target: T6, Ubiquitin-conjugating enzyme E2 N (Homo sapiens, UniProt P61088); format: functional
T6 sequence (P61088 whole entry): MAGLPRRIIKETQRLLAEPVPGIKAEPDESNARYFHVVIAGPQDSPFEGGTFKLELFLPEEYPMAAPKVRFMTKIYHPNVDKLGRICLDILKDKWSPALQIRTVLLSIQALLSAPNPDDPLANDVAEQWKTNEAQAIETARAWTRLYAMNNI

[10] = biological target: T6, Ubiquitin-conjugating enzyme E2 N; format: functional; remark: listed apart in the source
[11] = test system: P388/ADR; experiment: cells; format: functional; settings: Mus musculus
[12] = test system: SN12K1; experiment: cells; format: functional; settings: Homo sapiens
[13] = test system: P388; experiment: cells; format: functional; settings: Mus musculus
[14] = inhibitors of HIV Env-driven cell fusion, dose response, cherry-pick (AID 652057); format: functional, cell-based
[15] = ZM109 Env clade C HIV-1 fusion inhibitors, dose response, HeLa effector, CEM target cells, luciferase, cherry-pick (AID 652058); format: functional, cell-based
[16] = inhibitors of clade B AD8 Env fusion, dose response, cell-based, cherry-pick (AID 652062); format: functional;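 also: luciferase signal from cell-cell fusion driven by HIV-1 clade B AD8 Env; potency is for inhibitors of fusion seen as a drop in luminescence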

In the case of `O=C1OC(/C(=C\Nc2cc(Cl)ccc2O)[N+](=O)[O-])c2ccccc21` (stereo unspecified), the IC50 [1] is reported as 48.8 µM (active) and the IC50 [2] is reported as 11.7 µM (active).

For `CCCNC(=O)/C(=C/c1cn(S(=O)(=O)N(C)C)c2ccccc12)NC(=O)c1ccc(OC)cc1`, the EC50 [3] was 4.01 µM (active), the IC50 [4] was 4.86 µM (active) and the IC50 [5] was 6.75 µM (active).

In the case of `O=C1CCC(=O)N1c1nc2n(n1)C(c1ccccc1)C=C(c1ccc(Br)cc1)N2` (stereo unspecified), the IC50 [1] is reported as 69.7 µM (active).

For `CCN(CC)CCNC(=O)c1ccc(NC(=O)c2cccc(S(=O)(=O)N3c4ccccc4CC3C)c2)cc1` (stereo unspecified), the AC50 [6] was 10.5 µM (active).

For `CCN(CC)S(=O)(=O)c1ccc(C(=O)Oc2coc(CSc3nc(C)cc(C)n3)cc2=O)cc1`, the IC50 [7] was 40.4 µM (active).

For `CC(C)(C)c1ccc(C(=O)NCCC(=O)Nc2cc(Cl)ccc2N2CCOCC2)cc1`, the IC50 [4] was 9.59 µM (active) and the IC50 [5] was 4.54 µM (active).

In the case of `N#Cc1cc2sc3nnc(-c4ccncc4)n3c2cc1C#N`, the IC50 [4] is reported as 3.82 µM (active) and the IC50 [5] is reported as 4.69 µM (active).

For `O=C(CSc1nc2ccsc2c(=O)n1Cc1ccccc1)NCc1ccco1`, the IC50 [8] was > 20 µM (inactive), the IC50 [9] was 18.1 µM (active) and the IC50 [10] was > 20 µM (inactive).

In the case of `COc1cc(/C=C/c2ccc(OC)c(OC)c2)oc(=O)c1`, the GI50 [11] is reported as > 183 µM (inactive), the GI50 [12] is reported as > 183 µM (inactive) and the GI50 [13] is reported as 96.4 µM (inactive).

With `Cc1ccc(C2COc3cc(O)c(O)cc3C2)cc1` (stereo unspecified) the GI50 [11] was 1.79 µM (inactive), the GI50 [12] was 13.2 µM (inactive) and the GI50 [13] was 1.75 µM (inactive).

With `Cc1ccc(S(=O)(=O)N(C)C[C@@H]2Oc3ncc(/C=C/c4ccccc4)cc3C(=O)N([C@H](C)CO)C[C@@H]2C)cc1` the AC50 [14] was 0.577 µM (active), the AC50 [15] was 2.57 µM (active) and the AC50 [16] was 3.55 µM (active).

In the case of `O=C(C[C@H]1C=C[C@@H](NC(=O)Nc2ccccc2F)[C@@H](CO)O1)NCc1ccc(Cl)cc1`, the AC50 [14] is reported as 3.07 µM (active) and the AC50 [16] is reported as 9.13 µM (active).

With `CCN1CCCC(NCc2c3ccccc3c(CNC3CCCN(CC)C3)c3ccccc23)C1` (stereo unspecified) the GI50 [11] was 15.7 µM (inactive), the GI50 [12] was 8.32 µM (inactive) and the GI50 [13] was 2.64 µM (inactive).

In the case of `CN1CCN(c2ccc([N+](=O)[O-])cc2/C=N/NC(=O)c2ccc(F)cc2)CC1`, the IC50 [4] is reported as 11.2 µM (active) and the IC50 [5] is reported as 16 µM (active).

With `Cc1nc(NS(=O)(=O)c2ccccc2)sc1C(=O)N/N=C/c1ccccc1` the IC50 [1] was 50.1 µM (active).

For `CCCCS(=N)(=O)CC[C@H](N)C(=O)O` (stereo partly specified) [BUTHIONINE SULFOXIME], the GI50 [11] was > 5000 µM (inactive), the GI50 [12] was 3720 µM (inactive) and the GI50 [13] was 2250 µM (inactive).

With `CCCCCCCCCCCCCCCCSCC(COC)COP(=O)([O-])OCC[N+](C)(C)C` (stereo unspecified) [ILMOFOSINE] the GI50 [11] was 4.01 µM (inactive), the GI50 [12] was 11.7 µM (inactive) and the GI50 [13] was 2.36 µM (inactive).

In the case of `N[C@@H](Cc1ccc(N(CCCl)CCCl)cc1)C(=O)O` [MELPHALAN HYDROCHLORIDE], the GI50 [11] is reported as 5.71 µM (inactive), the GI50 [12] is reported as 26.5 µM (inactive) and the GI50 [13] is reported as 2.39 µM (inactive).

Source: ChEMBL document CHEMBL1201862, “PubChem BioAssay data set” (2004)
